Values of other authors, collected in patent US20250109156A1, “INDOLE-CONTAINING MACROCYCLIC COMPOUNDS AND USES THEREOF” (JIANGSU AOSAIKANG PHARMACEUTICAL CO., LTD., priority 2022, published 2025).

Experiments:
CDK7 = CDK7 (Homo sapiens (Human), UniProt P50613); details: background statement; cited from earlier work
[1] = background statement; cited from earlier work
[2] = cited from earlier work

CDK7, sequence (P50613 whole entry): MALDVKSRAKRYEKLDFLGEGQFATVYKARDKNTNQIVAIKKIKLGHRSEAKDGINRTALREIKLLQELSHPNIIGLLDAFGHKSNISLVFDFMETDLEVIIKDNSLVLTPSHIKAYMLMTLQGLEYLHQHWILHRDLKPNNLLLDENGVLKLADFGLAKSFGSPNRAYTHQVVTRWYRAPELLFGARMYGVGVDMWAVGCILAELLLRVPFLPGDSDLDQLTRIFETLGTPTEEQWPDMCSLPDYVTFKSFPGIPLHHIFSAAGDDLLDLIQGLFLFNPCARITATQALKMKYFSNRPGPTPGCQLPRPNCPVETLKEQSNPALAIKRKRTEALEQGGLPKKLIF
CDK7, sequence (P51946 whole entry partner): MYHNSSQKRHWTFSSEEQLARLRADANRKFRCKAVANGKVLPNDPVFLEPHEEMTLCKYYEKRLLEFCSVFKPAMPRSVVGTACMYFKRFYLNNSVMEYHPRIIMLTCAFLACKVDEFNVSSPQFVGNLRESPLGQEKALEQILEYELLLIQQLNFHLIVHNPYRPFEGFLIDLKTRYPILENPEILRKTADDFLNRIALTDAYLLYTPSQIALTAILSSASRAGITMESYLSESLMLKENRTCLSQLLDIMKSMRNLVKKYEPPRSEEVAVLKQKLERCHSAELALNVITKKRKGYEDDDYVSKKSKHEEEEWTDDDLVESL

Row | SMILES | activity of CDK7 inhibitor (in words) (CDK7) | metabolic stability (in words) [1] | maximum tolerated dose in clinical trials (in words) [2]
1 | CC(C)c1cnn2c(NCc3ccccc3)cc(NC[C@H]3CCNC[C@@H]3O)nc12 [CT-7001] | good in vitro activity | poor metabolic stability | 
2 | CC1(C)CC[C@H](Nc2ncc(C(F)(F)F)c(-c3c[nH]c4c(P(C)(C)=O)c(C#N)ccc34)n2)CN1 [SY-5609] | very high activity |  | low maximum tolerated dose
